Test results published in the supplement of paper PMC10307832.

What was measured:
Assay in all cases: relative viability (nuclei count vs DMSO), 5 days (fraction); higher = more cells survive
[1] = test system: 201T
In short: (§1)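 Lung cancer cell lines, seeded in 1536-well plates, were treated the following day by pin tool with a single drug or with five library-drug doses (not always all listed) in √10 steps on top of a fixed anchor-drug dose. Cells were fixed and nuclei stained in one step after 5 days, and nuclei were counted. Relative viability is the nuclei count for treated wells divided by that for vehicle wells, reported as medians of duplicate plates.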

[2] = test system: NCI-H727
In short: as §1

[3] = test system: NCI-H596
In short: as §1

[4] = test system: ABC-1
In short: as §1

[5] = test system: H3255
In short: as §1

[6] = test system: NCI-H1915
In short: as §1

[7] = test system: NCI-H441
In short: as §1

[8] = test system: PC-3 [JPC-3]
In short: as §1

[9] = test system: NCI-H1944
In short: as §1

[10] = test system: CAL-12T
In short: as §1

[11] = test system: NCI-H2023
In short: as §1

[12] = test system: LC-2-ad
In short: as §1

[13] = test system: BEN
In short: as §1

[14] = test system: LCLC-97TM1
In short: as §1

[15] = test system: NCI-H661
In short: as §1

[16] = test system: NCI-H2087
In short: as §1

[17] = test system: NCI-H650
In short: as §1

[18] = test system: A-427
In short: as §1

[19] = test system: NCI-H1651
In short: as §1

[20] = test system: NCI-H460
In short: as §1

[21] = test system: NCI-H1650
In short: as §1

[22] = test system: NCI-H520
In short: as §1

CC1(C)CCC(c2ccc(Cl)cc2)=C(CN2CCN(c3ccc(C(=O)NS(=O)(=O)c4ccc(N[C@H](CCN5CCOCC5)CSc5ccccc5)c(S(=O)(=O)C(F)(F)F)c4)cc3)CC2)C1 [Navitoclax] + COc1cc2c(Oc3ccc(NC(=O)C4(C(=O)Nc5ccc(F)cc5)CC4)cc3F)ccnc2cc1OCCCN1CCOCC1 [Foretinib] (partner 0.25 µM) showed a relative viability ([1]; first compound 0.005 µM) of 1.2, a relative viability ([1]; first compound 0.01581 µM) of 1.43 and a relative viability ([1]; first compound 0.05 µM) of 1.06. It also gave a relative viability ([1]; first compound 0.1581 µM) of 1.12, a relative viability ([1]; first compound 0.5 µM) of 1.03 and a relative viability ([2]; first compound 0.005 µM) of 1.12. The relative viability ([2]; first compound 0.01581 µM) was 0.902, the relative viability ([2]; first compound 0.1581 µM) was 0.829 and the relative viability ([2]; first compound 0.5 µM) was 0.858. For the same compound, the relative viability ([3]; first compound 0.005 µM) was 1.08, the relative viability ([3]; first compound 0.01581 µM) was 0.853 and the relative viability ([3]; first compound 0.1581 µM) was 0.839. It also gave a relative viability ([3]; first compound 0.5 µM) of 0.917, a relative viability ([4]; first compound 0.005 µM) of 1.32 and a relative viability ([4]; first compound 0.01581 µM) of 1.17. The relative viability ([4]; first compound 0.05 µM) was 1.12, the relative viability ([4]; first compound 0.1581 µM) was 1.07 and the relative viability ([4]; first compound 0.5 µM) was 1.05. For the same compound, the relative viability ([5]; first compound 0.005 µM) was 0.884, the relative viability ([5]; first compound 0.01581 µM) was 0.973 and the relative viability ([5]; first compound 0.05 µM) was 0.764. The relative viability ([5]; first compound 0.1581 µM) was 0.861, the relative viability ([5]; first compound 0.5 µM) was 0.787 and the relative viability ([6]; first compound 0.005 µM) was 1.08. The relative viability ([6]; first compound 0.01581 µM) was 1.12, the relative viability ([6]; first compound 0.05 µM) was 1.11 and the relative viability ([6]; first compound 0.1581 µM) was 1.02. The relative viability ([6]; first compound 0.5 µM) was 1.07, the relative viability ([7]; first compound 0.005 µM) was 0.958 and the relative viability ([7]; first compound 0.01581 µM) was 1.05. It also gave a relative viability ([7]; first compound 0.05 µM) of 1.05, a relative viability ([7]; first compound 0.1581 µM) of 0.945 and a relative viability ([7]; first compound 0.5 µM) of 0.948. For the same compound, the relative viability ([8]; first compound 0.005 µM) was 1.02, the relative viability ([8]; first compound 0.01581 µM) was 1.03 and the relative viability ([8]; first compound 0.05 µM) was 1.12. It also gave a relative viability ([8]; first compound 0.1581 µM) of 1.02, a relative viability ([8]; first compound 0.5 µM) of 1.06 and a relative viability ([9]; first compound 0.005 µM) of 0.872. The relative viability ([9]; first compound 0.01581 µM) was 0.945, the relative viability ([9]; first compound 0.05 µM) was 0.745 and the relative viability ([9]; first compound 0.1581 µM) was 0.851. For the same compound, the relative viability ([9]; first compound 0.5 µM) was 0.741, the relative viability ([10]; first compound 0.005 µM) was 1.08 and the relative viability ([10]; first compound 0.01581 µM) was 1.17. It also gave a relative viability ([10]; first compound 0.05 µM) of 1.16, a relative viability ([10]; first compound 0.1581 µM) of 1.11 and a relative viability ([10]; first compound 0.5 µM) of 1.11. For the same compound, the relative viability ([11]; first compound 0.005 µM) was 0.912, the relative viability ([11]; first compound 0.01581 µM) was 1.12 and the relative viability ([11]; first compound 0.05 µM) was 0.819. It also gave a relative viability ([11]; first compound 0.1581 µM) of 0.848, a relative viability ([11]; first compound 0.5 µM) of 0.995 and a relative viability ([12]; first compound 0.005 µM) of 0.837. It also gave a relative viability ([12]; first compound 0.01581 µM) of 1.29, a relative viability ([12]; first compound 0.05 µM) of 1.02 and a relative viability ([12]; first compound 0.1581 µM) of 0.871. The relative viability ([12]; first compound 0.5 µM) was 0.887, the relative viability ([13]; first compound 0.005 µM) was 0.69 and the relative viability ([13]; first compound 0.01581 µM) was 0.664. The relative viability ([13]; first compound 0.05 µM) was 0.604, the relative viability ([13]; first compound 0.1581 µM) was 0.719 and the relative viability ([13]; first compound 0.5 µM) was 0.114. The relative viability ([14]; first compound 0.005 µM) was 0.972, the relative viability ([14]; first compound 0.01581 µM) was 0.984 and the relative viability ([14]; first compound 0.05 µM) was 0.831. The relative viability ([14]; first compound 0.1581 µM) was 0.985, the relative viability ([14]; first compound 0.5 µM) was 0.921 and the relative viability ([15]; first compound 0.005 µM) was 0.984. It also gave a relative viability ([15]; first compound 0.01581 µM) of 1.06, a relative viability ([15]; first compound 0.05 µM) of 0.87 and a relative viability ([15]; first compound 0.1581 µM) of 0.988. For the same compound, the relative viability ([15]; first compound 0.5 µM) was 1, the relative viability ([16]; first compound 0.005 µM) was 1.07 and the relative viability ([16]; first compound 0.01581 µM) was 1.08. For the same compound, the relative viability ([16]; first compound 0.1581 µM) was 0.953, the relative viability ([16]; first compound 0.5 µM) was 1.07 and the relative viability ([17]; first compound 0.005 µM) was 1.05. It also gave a relative viability ([17]; first compound 0.01581 µM) of 1.15, a relative viability ([17]; first compound 0.05 µM) of 1 and a relative viability ([17]; first compound 0.1581 µM) of 1.04. It also gave a relative viability ([17]; first compound 0.5 µM) of 1.07, a relative viability ([18]; first compound 0.005 µM) of 0.988 and a relative viability ([18]; first compound 0.01581 µM) of 1.07. It also gave a relative viability ([18]; first compound 0.05 µM) of 0.821, a relative viability ([18]; first compound 0.1581 µM) of 1.04 and a relative viability ([18]; first compound 0.5 µM) of 1.1. It also gave a relative viability ([19]; first compound 0.005 µM) of 0.681, a relative viability ([19]; first compound 0.01581 µM) of 0.979 and a relative viability ([19]; first compound 0.05 µM) of 0.442. For the same compound, the relative viability ([19]; first compound 0.1581 µM) was 0.809, the relative viability ([19]; first compound 0.5 µM) was 0.847 and the relative viability ([20]; first compound 0.005 µM) was 0.991. For the same compound, the relative viability ([20]; first compound 0.01581 µM) was 1.02, the relative viability ([20]; first compound 0.05 µM) was 0.713 and the relative viability ([20]; first compound 0.1581 µM) was 1.01. The relative viability ([20]; first compound 0.5 µM) was 0.941, the relative viability ([21]; first compound 0.005 µM) was 1.08 and the relative viability ([21]; first compound 0.01581 µM) was 1.48. For the same compound, the relative viability ([21]; first compound 0.05 µM) was 1.12, the relative viability ([21]; first compound 0.1581 µM) was 1.28 and the relative viability ([21]; first compound 0.5 µM) was 0.953. The relative viability ([22]; first compound 0.01581 µM) was 0.985, the relative viability ([22]; first compound 0.05 µM) was 0.892 and the relative viability ([22]; first compound 0.1581 µM) was 0.738. For the same compound, the relative viability ([22]; first compound 0.5 µM) was 0.61.
